Data published in PMC6152131, “Pharmacokinetic Study of Biotransformation Products from an Anxiolytic Fraction of Tilia americana” (Molecules : A Journal of Synthetic Chemistry and Natural …, 2017).
Where two headings read alike, the source gives them in different places.

Experiments:
[1] = Plasma concentration after a single oral dose of the anxiolytic fraction (HPLC); assay type: in vivo, ICR mice; details: oral 200 mg/kg anxiolytic fraction, immediately after administration and over 24 h
Procedure: Eleven groups of ten animals each were randomly formed. All animals were orally administered with 200 mg/kg of the active fraction. Animals were anaesthetized with ether, and blood samples were obtained from the retroorbital sinus with a heparinized capillary, each group was examined at different times (0, 5, 10, 15, 30, 60, 120, 240, 480, 720, and 1440 min) after the active fraction was administered. […] Then the plasma samples were frozen and lyophilized. The dry plasma was subsequently used to extract and measure the concentration of the flavonoids and biotransformation products.
(§1) Plasma dried pulverized samples were extracted with methanol (HPLC grade, Merck). The extracts were filtered with Teflon membrane dimensions 0.45 μm by 13 mm (Millex®-LCR); 20 μL of each filtered sample was injected into the HPLC equipment. The measurements were performed in a (Waters corporation, Milford, CT, USA) 2695 HPLC with a diode array detector (Waters 2996) and processed with the Empower Pro 1.0 software. A Chromolith Performance® RP-18e 100 × 4.6 mm (Merck KGaA, Darmstadt, Germany) was used. The mobile phase consisted of a mixture of acetonitrile and water with the proportion 55:45 and a flow rate of 1 mL/min. The concentrations of the flavonoids and the biotransformation products were obtained by comparison with a pre-built calibration curve at λ = 220 nm.
To evaluate the suitability of the assay for the pharmacokinetic studies, 200 mg/kg of the active fraction was orally administered to the animals. Ten animals were used in each group at different times (0, 5, 10, 15, 30, 60, 120, 240, 480, 720, and 1440 min). Pharmacokinetic calculations were performed using the observed data. All data was subsequently processed using the PKSolver add-in program for Microsoft Excel written in Visual Basic for Applications. All values obtained were expressed in mean ± standard deviation.

[2] = Stability of flavonoids and biotransformation products in mouse plasma under different handling conditions; assay type: in vitro ADME, mice
Procedure: as §1
[…] The investigation enclosed here expected manipulation conditions during all the sample storage and process periods, which included the stability data from the freeze/thaw, bench-top, autosampler, and long–term stability tests.
For all stability studies, fresh QC samples were evaluated by using a freshly prepared standard curve for the measurements. The concentrations obtained from all the stability studies were compared with the fresh QC samples, and the percentage concentration deviation was calculated. The analytes were considered stable in the mouse plasma when the concentration difference between the freshly prepared samples and the stability samples was less than 15%.

[3] = parameters: method as in PMID 11151743; details: glucoronides and sulphates of quercetin found in plasma; cited from earlier work
[4] = storage stability, high nominal conc.
[5] = storage stability, high nominal conc. (7.00; 44.37; 4.50; 31.25 µg/mL), n = 6
[6] = storage stability, low nominal conc.
[7] = storage stability, low nominal conc. (1.75; 11.02; 1.12; 1.95 µg/mL), n = 6
[8] = storage stability, medium nominal conc.

C[C@@H]1O[C@@H](OC[C@H]2O[C@@H](Oc3c(-c4ccc(O)c(O)c4)oc4cc(O)cc(O)c4c3=O)[C@H](O)[C@@H](O)[C@@H]2O)[C@H](O)[C@H](O)[C@H]1O [Rutin, rutin]
flavonoids found in the plasma after oral administration [1]: not found | Observed Conc. 0 h [2]: 3.39 ± 0.16 µg/mL | Observed Conc. 8 h [2]: 3.67 ± 0.30 µg/mL | Observed Conc. 24 h [2]: 3.38 ± 0.27 µg/mL | Observed Conc. Autosampler (4 °C; 8 h) [2]: 3.44 ± 0.15 µg/mL | Observed Conc. Long-term (−70 °C; 1 month) [2]: 3.51 ± 0.28 µg/mL | Accuracy Bias 0 h ([2]; room temperature (25 °C), 0 h, high nominal conc.): −1.99% | Observed Conc. 0 h ([2]; room temperature (25 °C), 0 h, high nominal conc. (rutin 7.00; quercetin glucoside, quercitrin, tiliroside 44.37; kaempferol 4.50; m-HPAA, p-HPAA, DOPAC 31.25 µg/mL), n = 6): 7.27 ± 0.41 µg/mL | Accuracy Bias 0 h ([2]; room temperature (25 °C), 0 h, low nominal conc.): 5.76% | Observed Conc. 0 h ([2]; room temperature (25 °C), 0 h, low nominal conc. (rutin 1.75; quercetin glucoside, quercitrin, tiliroside 11.02; kaempferol 1.12; m-HPAA, p-HPAA, DOPAC 1.95 µg/mL), n = 6): 1.74 ± 0.11 µg/mL | Accuracy Bias 0 h ([2]; room temperature (25 °C), 0 h, medium nominal conc.): 3.17% | Accuracy Bias 8 h ([2]; room temperature (25 °C), 8 h, high nominal conc.): −2.45% | Observed Conc. 8 h ([2]; room temperature (25 °C), 8 h, high nominal conc. (7.00; 44.37; 4.50; 31.25 µg/mL), n = 6): 7.17 ± 0.21 µg/mL | Accuracy Bias 8 h ([2]; room temperature (25 °C), 8 h, low nominal conc.): 5.46% | Observed Conc. 8 h ([2]; room temperature (25 °C), 8 h, low nominal conc. (1.75; 11.02; 1.12; 1.95 µg/mL), n = 6): 1.65 ± 0.10 µg/mL | Accuracy Bias 8 h ([2]; room temperature (25 °C), 8 h, medium nominal conc.): −4.97% | Accuracy Bias 24 h ([2]; room temperature (25 °C), 24 h, high nominal conc.): −3.93% | Observed Conc. 24 h ([2]; room temperature (25 °C), 24 h, high nominal conc. (7.00; 44.37; 4.50; 31.25 µg/mL), n = 6): 7.13 ± 0.24 µg/mL | Accuracy Bias 24 h ([2]; room temperature (25 °C), 24 h, low nominal conc.): 0.33% | Observed Conc. 24 h ([2]; room temperature (25 °C), 24 h, low nominal conc. (1.75; 11.02; 1.12; 1.95 µg/mL), n = 6): 1.64 ± 0.10 µg/mL | Accuracy Bias 24 h ([2]; room temperature (25 °C), 24 h, medium nominal conc.): 2.93% | Accuracy Bias Autosampler (4 °C; 8 h) [2, 4]: −1.17% | Accuracy Bias Long-term (−70°C; 1 month) [2, 4]: −1.56% | Observed Conc. Autosampler (4 °C; 8 h) [2, 5]: 7.08 ± 0.34 µg/mL | Observed Conc. Long-term (−70 °C; 1 month) [2, 5]: 7.10 ± 0.38 µg/mL | Accuracy Bias Autosampler (4 °C; 8 h) [2, 6]: −6.41% | Accuracy Bias Long-term (−70°C; 1 month) [2, 6]: 2.92% | Observed Conc. Autosampler (4 °C; 8 h) [2, 7]: 1.86 ± 0.19 µg/mL | Observed Conc. Long-term (−70 °C; 1 month) [2, 7]: 1.69 ± 0.12 µg/mL | Accuracy Bias Autosampler (4 °C; 8 h) [2, 8]: 1.58% | Accuracy Bias Long-term (−70°C; 1 month) [2, 8]: −0.45% | absorption into the vascular space after oral administration [3]: not absorbed
